Reference: patent publication US8980542B2, “Arginine-containing compositions and methods for treating red blood cells” (Viacell, LLC, priority 2010, dated 2015)

Legend:
stored RBCs = assay: 2,3-DPG level of stored RBCs after incubation with storage and/or rejuvenating composition (Roche 2,3-DPG kit); type: cell-based; settings: 60 minutes at 37° C.
Method: A storage and/or rejuvenating composition that includes D-ribose, inosine, sodium pyruvate, and inorganic phosphate, all at a 300 mM concentration as a slurry was prepared. When used to store and/or rejuvenate RBCs, the slurry is diluted 30-fold to a final concentration of 10 mM to form a solution. […] In a study, RBCs were collected and stored for an average of 21 days at 4° C. according to standard blood banking practice. Various RBC storage and/or rejuvenating compositions were added to the 21-day old stored RBCs and held at 37° C. for one to four hours before being tested for 2,3-DPG concentrations. […] A normal 2,3-DPG concentration of RBC immediately upon harvest is 4.0 μmol/ml. […] An increase to 1.0 μmol/ml is considered a significant improvement.
Experimental protocols were designed to find methods to increase the solubility of inosine. […] A storage and/or rejuvenating composition including 300 mM each of inosine, L-arginine, sodium pyruvate, D-ribose, and inorganic phosphate was diluted 30-fold into 21-day old stored RBCs. One set of stored blood samples was incubated for 60 minutes at room temperature and another was incubated for 60 minutes at 37° C.

[1] = Solubility of nucleoside in the composition; type: physicochemical; settings: equimolecular solution with L-arginine, room temperature

Nc1nc2c(ncn2[C@@H]2O[C@H](CO)[C@@H](O)[C@H]2O)c(=O)[nH]1 [Guanosine]
Rejuvenation (stored RBCs; guanosine with 10 mM each inorganic phosphate and D-ribose, no sodium pyruvate): observed

O=C[C@H](O)[C@H](O)[C@H](O)COP(=O)(O)O [ribose-5-phosphate]
Rejuvenation (stored RBCs; inosine replaced by varying concentrations of the substance in composition with 10 mM each D-ribose, sodium pyruvate, inorganic phosphate): not observed

OC[C@H]1O[C@@H](n2cnc3c(O)ncnc32)[C@H](O)[C@@H]1O [inosine]
concentration at which inosine remained in solution [1]: above 50 mM
